# According to PMC11995230 (ACS Medicinal Chemistry Letters, 2025):
# Where two headings read alike, the source gives them in different places.
# What was measured:
# S. pasteurii urease = target: T1, S. pasteurii urease (Sporosarcina pasteurii, UniProt P41020); test: Purified S. pasteurii urease inhibition, cresol red assay, no preincubation; format: biochemical, Sporosarcina pasteurii CCM 2056; conditions: native purified urease, slow-binding, read-out: K i, S. pasteurii urease
# T1 construct: The native urease, purified from S. pasteurii CCM 2056; made in house; host or cells: Sporosarcina pasteurii CCM 2056 (native, endogenous enzyme, not recombinant)
# Protocol: compounds. Helicobacter pylori 2CLM belongs to the collection of the Department of Microbiology, Wrocław Medical University, Poland.
# Purification of S. pasteurii urease
# The native urease from the cells of S. pasteurii was induced and purified in a five-step chromatographic procedure, as previously described.S5 The protein concentration was […]
# (§1) Enzymatic activity assays
# (§2) Purified urease activity with the addition of the organoselenium compounds studied was measured using cresol red as an indicator of pH changes caused by ammonia produced during ureolysis.S6 The reaction was carried out in 3 mM phosphate buffer containing 30 mM urea, 0.01 % w/v cresol red, purified urease (at a concentration that led to a change in A570 of approximately 1.5 in 90 min) and studied compounds at various concentrations. The reaction was followed by using a TECAN Sunrise spectrometer , and the resulting progress curves were further analyzed to determine the activity and binding mechanism. The rea ction was followed in a system without preincubation of the enzyme with the benzisoselenazolone derivatives (addition of urease initiated the measurement).
# The progress curves were fitted to the following equation to calculate the apparent reaction rate constants ( kapp):
# P = v ∗ t + 0 s ∗ (1 − e−kapp∗t)
# P – product concentration; t – time; v0 – initial state velocity; vs – steady state velocity.
# The kapp values were then plotted against the inhibitor concentration [I], and the resulting linear function was used to calculate the dissociation […] of the EI complex (Ki): […]
# [1] = system: H. pylori Tx30a (ATCC 51932) live cells; test: Whole cell ureolysis assay, cresol red; format: cell-based, Helicobacter pylori
# Protocol: as §1
# as §2, with “measurement). […]” for “measurement).”
# Whole cell ureolysis assays
# To measure the inhibitory activity of the compounds studied against whole cells of ureolytic pathogens, the cresol red reaction was carried out using H. pylori cells that were washed twice with 10 mM PBS and used as a biocatalyst.S6 The reaction mixture contained 10 mM PBS, 10 […]
# mM urea, bacterial cells, and urease inhibitors. The results were then used to calculate the IC50 values of the organoselenium compounds against the whole cell ureolysis of H. pylori. […]
# [2] = system: multidrug-resistant clinical isolate H. pylori 2CML; test: Antimicrobial activity alone and in combination with antibiotics, checkerboard method; format: cell-based, Helicobacter pylori; conditions: for MIC: Helicobacter pylori
# Protocol: Combination of drugs against H. pylori 2CML
# A multidrug-resistant clinical isolate H. pylori 2CML from the collection of the Department of Microbiology, Wrocław Medical University)S7 was used to assess the antimicrobial activity of compounds 1 and 4m, in combination with Clarithromycin, Metronidazole, and Levofloxacin (Sigma-Aldrich). The experiments were carried out on flat-bottom 12-well microtiter plates (Bionovo, Legnica, Poland), arranged in a 48-well panel to use the checkboard method.S8 […]
# the selected antibiotic were placed in external wells along the x- and y-axes, respectively. The remaining wells contained varying concentrations of both compounds. Each well consisted of 1 mL of Brain Heart Infusion (Oxoid, Le Pont de Claix , France) broth with 5% foetal calf serum (Gibco, Paisley, Scotland, UK) , a bacterial suspension of 10^7 CFU/mL and the desired concentration of the antimicrobial (s) tested. Following the setup, the plates were incubated for 3 days at 37 °C under microaerophilic conditions (GENbox microaer kits, BioMerrieux, Marcy l’Etoile, France), shaking at 100 rpm.
# The minimum inhibitory concentration (MIC) was determined as the lowest concentration in which no microbial growth was observed .
# The interactions between antimicrobials were interpreted b y calculation of the fractional inhibitory concentration (FIC) index (FICI), defined as FICI = FICA + FICB (FICA = MIC of substance A in combination / MIC of substance A alone, FICB = MIC of substance B in combination / MIC of substance B alone). FICI ≤0.5 was considered as synergism; >0.5 but ≤1 as additivity, while […] as neutral.
# [3] = system: Proteus mirabilis pathogenic cells; conditions: previously reported by the authors; reference number not given; read-out: IC50, ureolysis in Proteus mirabilis pathogenic cells; cited from earlier work
# [4] = Helicobacter pylori, ATCC51932, read-out: IC50, H. pylori whole-cell ureolysis, live cells of H. pylori Tx30a
# [5] = read-out: IC50, H. pylori whole-cell ureolysis, live cells of H. pylori Tx30a
# [6] = pair 4m + Clarithromycin, H. pylori 2CML
# [7] = pair 4m + Levofloxacin, H. pylori 2CML
# [8] = pair 4m + Metronidazole, H. pylori 2CML
# [9] = 72 h, H. pylori 2CML, single agent, read-out: MIC Alone
# [10] = H. pylori 2CML, single agent, read-out: MIC Alone
# [11] = pair Ebselen + Levofloxacin, H. pylori 2CML
# [12] = pair Ebselen + Clarithromycin, H. pylori 2CML
# [13] = pair Ebselen + Metronidazole, H. pylori 2CML
# T1 sequence (P41020 whole entry): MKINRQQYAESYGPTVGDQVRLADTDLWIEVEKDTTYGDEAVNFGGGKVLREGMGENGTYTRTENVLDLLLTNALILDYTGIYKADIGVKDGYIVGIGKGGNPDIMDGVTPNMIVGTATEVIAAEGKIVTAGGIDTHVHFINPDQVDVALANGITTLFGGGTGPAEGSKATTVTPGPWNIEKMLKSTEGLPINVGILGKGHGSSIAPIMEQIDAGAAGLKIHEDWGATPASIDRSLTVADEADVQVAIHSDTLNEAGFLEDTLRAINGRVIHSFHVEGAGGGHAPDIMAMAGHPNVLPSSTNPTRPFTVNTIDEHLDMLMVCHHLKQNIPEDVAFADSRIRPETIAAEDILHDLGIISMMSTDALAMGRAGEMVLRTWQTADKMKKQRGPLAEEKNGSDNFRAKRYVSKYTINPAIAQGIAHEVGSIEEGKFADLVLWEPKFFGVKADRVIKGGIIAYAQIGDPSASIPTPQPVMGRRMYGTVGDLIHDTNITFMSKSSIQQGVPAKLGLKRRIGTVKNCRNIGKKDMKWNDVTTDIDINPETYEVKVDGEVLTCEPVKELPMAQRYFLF
# T1 sequence (P41022 whole entry, further chain): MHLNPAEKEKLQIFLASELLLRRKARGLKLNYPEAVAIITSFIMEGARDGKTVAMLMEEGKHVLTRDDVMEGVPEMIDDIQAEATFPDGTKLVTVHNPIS
# T1 sequence (P41021 whole entry, further chain): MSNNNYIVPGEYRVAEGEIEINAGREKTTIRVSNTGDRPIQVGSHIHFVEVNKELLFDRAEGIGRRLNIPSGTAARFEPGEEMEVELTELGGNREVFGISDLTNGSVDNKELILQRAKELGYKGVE
compound,measurement,setting,value
O=c1c2ccccc2[se]n1Cc1cccc(C(F)(F)F)c1 [4c],Ki,S. pasteurii urease,2.5 ± 0.24 nM
same,IC50,[1]; [4],112 ± 2.4 nM
O=c1c2ccccc2[se]n1Cc1ccc(F)c(F)c1F [4r],Ki,S. pasteurii urease,2.94 ± 0.26 nM
same,IC50,[1]; [4],179 ± 3.3 nM
O=c1c2ccccc2[se]n1Cc1ccc(C(F)(F)F)c(F)c1 [4m],Ki,S. pasteurii urease,15.9 ± 1.9 nM
same,IC50,[1]; [4],< 100 nM
same,IC50,[1]; [5],93.5 ± 5.3 nM
same,MIC,"[2]; 72 h, read-out: MIC Alone",1.17 µg/mL
same,MIC,[2]; read-out: MIC Alone,1.17 µg/mL
same,MIC,[2]; read-out: MIC alone,3.12 µM
same,FIC,[2]; pair 4m + Clarithromycin,0.0625
same,FICI,[2]; pair 4m + Clarithromycin,0.562
same,Interpretation,[2]; pair 4m + Clarithromycin,Additive (>0.5 but ≤1 as additivity)
same,MIC Combination,[2]; [6],0.0731 µg/mL
same,MIC in combination,[2]; [6],0.2 µM
same,FIC,[2]; pair 4m + Levofloxacin,0.5
same,FICI,[2]; pair 4m + Levofloxacin,1
same,Fold change of MIC (reduction),[2]; pair 4m + Levofloxacin,×2↓
same,Interpretation,[2]; pair 4m + Levofloxacin,Additive (>0.5 but ≤1 as additivity)
same,MIC Combination,[2]; [7],0.585 µg/mL
same,FIC,[2]; pair 4m + Metronidazole,0.125
same,FICI,[2]; pair 4m + Metronidazole,0.625
same,Interpretation,[2]; pair 4m + Metronidazole,Additive (>0.5 but ≤1 as additivity)
same,MIC Combination,[2]; [8],0.146 µg/mL
C[C@H]1COc2c(N3CCN(C)CC3)c(F)cc3c(=O)c(C(=O)O)cn1c23 [Levofloxacin],MIC,[2]; [9],16 µg/mL
same,MIC,[2]; [10],16 µg/mL
same,FIC,[2]; pair 4m + Levofloxacin,0.5
same,Fold change of MIC (reduction),[2]; pair 4m + Levofloxacin,×2↓
same,MIC Combination,[2]; [7],8 µg/mL
same,FIC,[2]; pair Ebselen + Levofloxacin,0.5
same,Fold change of MIC (reduction),[2]; pair Ebselen + Levofloxacin,×2↓
same,MIC Combination,[2]; [11],8 µg/mL
O=c1c2ccccc2[se]n1Cc1ccc(Cl)c(C(F)(F)F)c1 [4n],Ki,S. pasteurii urease,18.6 ± 0.37 nM
same,IC50,[1]; [4],153 ± 5.4 nM
O=c1c2ccccc2[se]n1Cc1ccc(Cl)cc1Cl [4f],Ki,S. pasteurii urease,0.594 ± 0.032 nM
same,IC50,[1]; [4],345 ± 16 nM
O=c1c2ccccc2[se]n1Cc1ccc(F)c(F)c1 [4l],Ki,S. pasteurii urease,3.35 ± 0.65 nM
same,IC50,[1]; [4],110 ± 4.5 nM
"O=c1c2ccccc2[se]n1-c1ccccc1 [compound 1, N-phenyl-1,2-benzisoselenazol-3(2H)-one]",IC50,[3],29.2 ± 3.1 nM
same,IC50,[1]; [4],742 ± 41 nM
same,MIC,[2]; [9],0.857 µg/mL
same,MIC,[2]; [10],0.857 µg/mL
same,MIC,"[2]; H. pylori 2CML, single agent, read-out: MIC alone",3.12 µM
same,FIC,[2]; pair Ebselen + Clarithromycin,0.5
same,FICI,[2]; pair Ebselen + Clarithromycin,1
same,Interpretation,[2]; pair Ebselen + Clarithromycin,Additive (>0.5 but ≤1 as additivity)
same,MIC Combination,[2]; [12],0.429 µg/mL
same,FIC,[2]; pair Ebselen + Levofloxacin,0.5
same,FICI,[2]; pair Ebselen + Levofloxacin,1
same,Interpretation,[2]; pair Ebselen + Levofloxacin,Additive (>0.5 but ≤1 as additivity)
same,MIC Combination,[2]; [11],0.429 µg/mL
same,FIC,[2]; pair Ebselen + Metronidazole,0.5
same,FICI,[2]; pair Ebselen + Metronidazole,1
same,Interpretation,[2]; pair Ebselen + Metronidazole,Additive (>0.5 but ≤1 as additivity)
same,MIC Combination,[2]; [13],0.429 µg/mL
Cc1ncc([N+](=O)[O-])n1CCO [Metronidazole],MIC,[2]; [9],64 µg/mL
same,MIC,[2]; [10],64 µg/mL
same,FIC,[2]; pair 4m + Metronidazole,0.5
same,Fold change of MIC (reduction),[2]; pair 4m + Metronidazole,×2↓
same,MIC Combination,[2]; [8],32 µg/mL
same,FIC,[2]; pair Ebselen + Metronidazole,0.5
same,Fold change of MIC (reduction),[2]; pair Ebselen + Metronidazole,×2↓
same,MIC Combination,[2]; [13],32 µg/mL
O=c1c2ccccc2[se]n1Cc1cc(Cl)ccc1Cl [4h],Ki,S. pasteurii urease,9.04 ± 0.22 nM
same,IC50,[1]; [4],341 ± 23 nM
O=c1c2ccccc2[se]n1Cc1ccc(F)cc1 [4d],Ki,S. pasteurii urease,25.4 ± 2.8 nM
same,IC50,[1]; [4],193 ± 8.1 nM
O=c1c2ccccc2[se]n1Cc1ccccc1F [4a],Ki,S. pasteurii urease,3.61 ± 0.28 nM
same,IC50,[1]; [4],171 ± 5.4 nM
O=c1c2ccccc2[se]n1Cc1ccc(F)c(C(F)(F)F)c1 [4o],Ki,S. pasteurii urease,2.99 ± 0.088 nM
same,IC50,[1]; [4],107 ± 1.9 nM
"N-(4-chloro-2-fluorophenyl)-1,2-benzisoselenazol-3(2H)-one [compound 2, reference compound]",IC50,"[1]; live cells of H. pylori Tx30a, read-out: IC50, H. pylori whole-cell ureolysis",337 nM
O=c1c2ccccc2[se]n1Cc1ccc(F)cc1F [4g],Ki,S. pasteurii urease,2.52 ± 0.19 nM
same,IC50,[1]; [4],287 ± 18 nM
O=c1c2ccccc2[se]n1Cc1c(F)cccc1F [4j],Ki,S. pasteurii urease,1.16 ± 0.14 nM
same,IC50,[1]; [4],218 ± 14 nM
CC[C@H]1OC(=O)[C@H](C)[C@@H](O[C@H]2C[C@@](C)(OC)[C@@H](O)[C@H](C)O2)[C@H](C)[C@@H](O[C@@H]2O[C@H](C)C[C@H](N(C)C)[C@H]2O)[C@](C)(OC)C[C@@H](C)C(=O)[C@H](C)[C@@H](O)[C@]1(C)O [Clarithromycin],MIC,[2]; [9],16 µg/mL
same,MIC,[2]; [10],16 µg/mL
same,FIC,[2]; pair 4m + Clarithromycin,0.5
same,Fold change of MIC (reduction),[2]; pair 4m + Clarithromycin,×2↓
same,MIC Combination,[2]; [6],8 µg/mL
same,FIC,[2]; pair Ebselen + Clarithromycin,0.5
same,Fold change of MIC (reduction),[2]; pair Ebselen + Clarithromycin,×2↓
same,MIC Combination,[2]; [12],8 µg/mL
O=c1c2ccccc2[se]n1Cc1cc(C(F)(F)F)cc(C(F)(F)F)c1 [4q],Ki,S. pasteurii urease,3.32 ± 0.29 nM
same,IC50,[1]; [4],208 ± 4.5 nM
O=c1c2ccccc2[se]n1Cc1cccc(F)c1 [4b],Ki,S. pasteurii urease,12.2 ± 0.4 nM
same,IC50,[1]; [4],154 ± 8.4 nM
O=c1c2ccccc2[se]n1Cc1ccccc1 [compound 3],IC50,"[1]; Helicobacter pylori, ATCC51932, live cells of H. pylori Tx30a, read-out: IC50, H. pylori whole-cell ureolysis",151 ± 5.7 nM
O=c1c2ccccc2[se]n1Cc1cc(F)cc(F)c1 [4p],Ki,S. pasteurii urease,1.3 ± 0.027 nM
same,IC50,[1]; [4],122 ± 4.1 nM
O=c1c2ccccc2[se]n1Cc1ccc(Cl)c(Cl)c1 [4k],Ki,S. pasteurii urease,15.9 ± 0.65 nM
same,IC50,[1]; [4],315 ± 4.7 nM
O=c1c2ccccc2[se]n1Cc1ccc(C(F)(F)F)cc1 [4e],Ki,S. pasteurii urease,2.1 ± 0.19 nM
same,IC50,[1]; [4],170 ± 1.6 nM
O=c1c2ccccc2[se]n1Cc1cc(F)ccc1Cl [4i],Ki,S. pasteurii urease,0.543 ± 0.015 nM
same,IC50,[1]; [4],< 100 nM
same,IC50,[1]; [5],96.4 ± 1.7 nM
